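Test compounds were applied to cells in 96-well plates for 48 hours at 5 doses. Abbreviation: GI50, concentration required for 50% inhibition of growth. Definition used: TGI = concentration required for complete inhibition of growth.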
Experiments:
Test in all cases: NCI-60 cell line screen, 48 h
[1] = tested on: HCT-116 colon
[2] = tested on: UACC-62 melanoma
[3] = tested on: PC-3 prostate
[4] = tested on: K-562 leukemia
[5] = tested on: CAKI-1 renal
[6] = tested on: RPMI-8226 leukemia
[7] = tested on: MOLT-4 leukemia
[8] = tested on: SN12C renal
[9] = tested on: UACC-257 melanoma
[10] = tested on: LOX IMVI melanoma
[11] = tested on: IGROV1 ovarian
[12] = tested on: OVCAR-5 ovarian
[13] = tested on: HOP-92 NSCLC
[14] = tested on: BT-549 breast
[15] = tested on: 786-0 renal
[16] = tested on: OVCAR-4 ovarian
[17] = tested on: NCI-H23 lung
[18] = tested on: TK-10 renal
[19] = tested on: OVCAR-8 ovarian
[20] = tested on: MDA-MB-231 breast
[21] = tested on: NCI-H226 lung
[22] = tested on: ACHN renal
[23] = tested on: EKVX NSCLC
[24] = tested on: SR leukemia
[25] = tested on: HCT-15 colon
[26] = tested on: SK-OV-3 ovarian
[27] = tested on: KM12 colon
[28] = tested on: HT29 colon
[29] = tested on: SF-295 CNS

## Cn1ncc2ncc(-c3ccc4ncc(C#N)c(N5CCc6cc(F)c(Cl)cc65)c4c3)cc21
[1]
  TGI: > 100 µM
[2]
  GI50: 1.65 µM
  TGI: 11.7 µM
[3]
  GI50: 2.27 µM
  TGI: > 100 µM
[4]
  GI50: 4.73 µM
  TGI: > 100 µM
[5]
  GI50: 2.31 µM
  TGI: 79 µM
[6]
  GI50: 3.28 µM
  TGI: > 100 µM
[7]
  GI50: 3.01 µM
  TGI: > 100 µM
[8]
  GI50: 1.93 µM
  TGI: > 100 µM
[9]
  GI50: 9.46 µM
  TGI: > 100 µM
[10]
  GI50: 2.26 µM
  TGI: 38.4 µM
[11]
  GI50: 1.22 µM
  TGI: 4.61 µM
[12]
  GI50: 3.71 µM
  TGI: > 100 µM
[13]
  GI50: 2.27 µM
  TGI: 8.75 µM
[14]
  GI50: 3.75 µM
  TGI: 85.6 µM
[15]
  GI50: 4.13 µM
  TGI: > 100 µM
[16]
  GI50: 2.64 µM
  TGI: 31.5 µM
[17]
  GI50: 4.8 µM
  TGI: > 100 µM
[18]
  GI50: 9.02 µM
  TGI: > 100 µM
[19]
  GI50: 4.47 µM
  TGI: > 100 µM
[20]
  GI50: 2.6 µM
  TGI: 28.1 µM
[21]
  GI50: 1.86 µM
  TGI: 20.9 µM
[22]
  GI50: 2.49 µM
  TGI: > 100 µM
[23]
  GI50: 2.35 µM
  TGI: 14.6 µM
[24]
  GI50: 3.67 µM
  TGI: > 100 µM
[25]
  GI50: 3.49 µM
  TGI: > 100 µM
[26]
  GI50: 2.71 µM
  TGI: > 100 µM
[27]
  GI50: 5.35 µM
  TGI: > 100 µM
[28]
  GI50: 3.82 µM
  TGI: > 100 µM
[29]
  GI50: 2.57 µM
  TGI: > 100 µM
